Article PMC4823711, “Allosteric Partial Inhibition of Monomeric Proteases. Sulfated Coumarins Induce Regulation, not just Inhibition, of Thrombin” (Scientific Reports, 2016)

Columns and labels:
Type in all cases: biochemical
factor Xa = molecular target: T1, factor Xa (Homo sapiens, UniProt P00742); assay: Chromogenic substrate hydrolysis assay, factor Xa inhibition (Spectrozyme FXa)
T1 construct: antithrombin, factor Xa and factor XIa were from Haematologic Technologies; purchased Haematologic Technologies (Essex Junction, VT); host or cells: human plasma
T1 sequence (P00742 235-488 limits assumed): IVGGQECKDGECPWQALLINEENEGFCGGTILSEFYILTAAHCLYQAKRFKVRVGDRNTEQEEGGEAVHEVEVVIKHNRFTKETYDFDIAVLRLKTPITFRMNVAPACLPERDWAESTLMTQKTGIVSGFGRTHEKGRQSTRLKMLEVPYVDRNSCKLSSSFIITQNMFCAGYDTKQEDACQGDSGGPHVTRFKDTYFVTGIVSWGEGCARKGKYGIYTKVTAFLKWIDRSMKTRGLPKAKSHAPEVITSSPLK
T1 sequence (P00742 41-179 limits assumed): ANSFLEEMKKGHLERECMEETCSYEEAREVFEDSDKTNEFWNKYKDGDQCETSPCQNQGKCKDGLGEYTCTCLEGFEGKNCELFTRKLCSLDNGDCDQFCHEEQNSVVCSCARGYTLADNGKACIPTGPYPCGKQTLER
Experimental: For factor XIa inhibition studies, 85 μL of buffer (50 mM Tris-HCl, 150 mM NaCl, 0.1% PEG 8000, 0.02% Tween 80, pH 7.4) was added to each well, followed by 7 μL of 15.3 nM enzyme and 3 μL of sulfated coumarin (3.75–500 μM final concentration) and incubated for 10 min at 37 °C. After the incubation period, 5 μL of 6.9 mM S-2366 was added to each well simultaneously and allowed to react for 300 sec at 37 °C. For factor Xa assay, 180 μL of buffer (20 mM Tris-HCl, 100 mM NaCl, 2.5 mM CaCl2, 0.1% PEG 8000, 0.02% Tween 80, pH 7.4) was added to each well followed by 5 μL of 43.5 nM enzyme, 10 μL of sulfated coumarin (0.002–250 μM final concentration). After a 10 min incubation, 5 μL of 5 mM Spectrozyme FXa was added to each well simultaneously and allowed to react for 300 seconds at 37 °C. The slopes generated from each experiment were used to calculate the fractional residual activity (Y) at each concentration of the inhibitor, and analyzed using logistic equation 1, in which YM is the maximum efficacy, Y0 is minimum efficacy and HS is the Hill slope.

thrombin mutant R173A = molecular target: T2, thrombin mutant R173A (Homo sapiens, UniProt P00734, R541A); assay: Inhibition of thrombin mutant R173A; settings: pH 7.4, 25 °C
T2 construct: a group of thrombin mutants containing replacement of either Arg or Lys present in exosite 2 to Ala
Experimental: (§1) Chromogenic substrate hydrolysis assay was used to measure potency of inhibition, as previously reported. The assay was performed using Flexstation III (Molecular Devices, Sunnyvale, CA) by monitoring substrate hydrolysis at 405 nm. For thrombin and its mutants, 180 μL of buffer (20 mM Tris-HCl, 100 mM NaCl, 2.5 mM CaCl2, 0.1% (polyethylene glycol) PEG 8000, pH 7.4) was added to each well followed by 5 μL of 240 nM thrombin and 10 μL of sulfated coumarin in DMSO to give 0.002 to 250 μM final concentration (or 10 μL of DMSO alone). After incubation for 10 min at 25 °C, 5 μL of 2 mM Spectrozyme TH was added to each well simultaneously and allowed to react for 60 seconds at 25 °C while simultaneously monitoring the reaction to obtain the rate of increase in A405. Identical experimental conditions were used for reactions in the presence of antithrombin, except for 100 nM of antithrombin added prior to the addition of the substrate.

thrombin mutant K236A = molecular target: T3, thrombin mutant K236A (Homo sapiens, UniProt P00734, K611A); assay: Inhibition of thrombin mutant K236A; settings: pH 7.4, 25 °C
T3 construct: a group of thrombin mutants containing replacement of either Arg or Lys present in exosite 2 to Ala
Experimental: as §1

thrombin mutant R101A = molecular target: T4, thrombin mutant R101A (Homo sapiens, UniProt P00734, R461A); assay: Inhibition of thrombin mutant R101A; settings: pH 7.4, 25 °C
T4 construct: a group of thrombin mutants containing replacement of either Arg or Lys present in exosite 2 to Ala
Experimental: as §1

thrombin = thrombin (Homo sapiens, UniProt P00734); assay: Antithrombin inactivation of thrombin in the presence of sulfated coumarin; parameters: 6 nM plasma α-thrombin; purchased Haematologic Technologies (Essex Junction, VT); host or cells: human plasma
Experimental: The effect of 3g on the reaction of thrombin (or factor Xa) with antithrombin was studied under pseudo-first order conditions such that [AT]0 ≫ [T]0. A fixed concentration of 6 nM plasma α-thrombin in 20 mM Tris-HCl buffer, pH 7.2, containing 100 mM NaCl, 2.5 mM CaCl2 and 0.1% PEG 8000 at 25 °C was incubated for 128 min with final concentrations of 0, 75, 225, or 675 nM of 3g following which a fixed concentration of 100 nM of antithrombin was added and the reaction allowed to proceed. […] The initial rate of hydrolysis of the Spectrozymes were monitored from the linear increase in A405. The fractional residual enzyme activity at each time point was calculated from the slope, i.e., thrombin activity, measured at the start of the experiment and fitted by the standard exponential decay equation 6 to calculate the observed pseudo-first order rate constant, kOBS, at each concentration of 3g. The intrinsic second-order rate constant of antithrombin inhibition of thrombin (kINT) was calculated using equation 7 and plotted against the concentration of thrombin–3g complex, obtained from quadratic equation 8, to derive the kINT of antithrombin inhibition of thrombin–3g complex.

thrombin mutant R126A = molecular target: T5, thrombin mutant R126A (Homo sapiens, UniProt P00734, R486A); assay: Inhibition of thrombin mutant R126A; settings: pH 7.4, 25 °C
T5 construct: a group of thrombin mutants containing replacement of either Arg or Lys present in exosite 2 to Ala
Experimental: as §1

thrombin mutant K169A = molecular target: T6, thrombin mutant K169A (Homo sapiens, UniProt P00734, K537A); assay: Inhibition of thrombin mutant K169A; settings: pH 7.4, 25 °C
T6 construct: a group of thrombin mutants containing replacement of either Arg or Lys present in exosite 2 to Ala
Experimental: as §1

O=c1oc2cc(OCCCCn3cc(COc4ccc(-c5c(-c6ccccc6)c6cc(Cl)cc(Cl)c6oc5=O)cc4)nn3)ccc2c(-c2ccccc2)c1-c1ccc(OS(=O)(=O)O)cc1 [3g]
selectivity for thrombin in comparison to factor Xa (factor Xa): ~ 800 fold | IC50 (factor Xa; pH 7.4, 37 °C, read-out: IC50 against factor Xa): > 30 µM | HS (thrombin mutant R173A): 2.0 | IC50 (thrombin mutant R173A): 0.522 ± 0.09 µM | ΔY (thrombin mutant R173A): 36 ± 3% | HS (thrombin mutant K236A): 2.6 | IC50 (thrombin mutant K236A): 0.525 ± 0.07 µM | ΔY (thrombin mutant K236A): 64 ± 4% | HS (thrombin mutant R101A): 2.5 | IC50 (thrombin mutant R101A): 0.255 ± 0.05 µM | ΔY (thrombin mutant R101A): 35 ± 4% | kINT, second order rate constant of antithrombin inhibition of thrombin–3g complex (thrombin; at 100% saturation of thrombin, pH 7.2, 25 °C, thrombin alone 2476 ± 228): 821 ± 198 M⁻¹ s⁻¹ | proteolytic activity of thrombin–3g complex (thrombin; kINT in the absence of 3g equated with 100%): 33 ± 12% | HS (thrombin mutant R126A): 3.2 | IC50 (thrombin mutant R126A): 0.308 ± 0.03 µM | ΔY (thrombin mutant R126A): 41 ± 2% | HS (thrombin mutant K169A): 7.6 | IC50 (thrombin mutant K169A): 0.494 ± 0.05 µM | ΔY (thrombin mutant K169A): 38 ± 3%
